{"source": "patent US11752147B2", "about": "“Pharmaceutical composition for the treatment of pain” (AZIENDE CHIMICHE RIUNITE ANGELINI FRANCESCO A.C.R.A.F. …, priority 2015, dated 2023)", "key": {"[1]": {"tested_on": "acetic acid-induced writhing in mice", "test": "Acetic acid-induced writhing test in mice", "conditions": "vs vehicle", "protocol": "(§1) The test compounds were evaluated in the model of acetic acid-induced writhing in mice (Stock J. L. et al., J. Clin. Inv. 2001, 107: 325 331).\n(§2) Writhing test is a chemical method used to induce pain of peripheral origin by injection of acetic acid in mice. Analgesic activity is inferred from decrease in the frequency of writhing.\n(§3) This test allowed evaluation of the antinociceptive activity of the compounds of the invention in a model of inflammatory pain.\n(§4) Writhing is defined as a stretch, tension to one side, extension of hind legs, contraction of the abdomen so that the abdomen of mice touches the floor, turning the trunk (twist).\n(§5) Male CD-1 mice weighing 20-25 g were used for the test.\n(§6) One hour after the treatment, an intraperitoneal injection of acetic acid (0.7% v/v in physiological saline, 16 μl/g of body weight) was given to the mice to induce inflammatory pain and to check the effects of the test compound on the nociceptive response.\n(§7) Five minutes after the administration of acetic acid and for the following 10 minutes the number of writhes was measured, which represents the parameter for evaluation of the nociceptive response. The analgesic activity is evaluated as % inhibition."}, "[2]": {"tested_on": "allodynia induced by ligature of the sciatic nerve in rats", "test": "Ligature of the sciatic nerve in rats (allodynia, von Frey)", "assay_type": "in vivo", "conditions": "one hour after administration, vs vehicle", "description": "Male CD rats weighing 200-250 g on arrival were used.\nThe allodynia was induced by ligature under anaesthesia of the sciatic nerve of the left hind leg [Seltzer Z, Dubner R, Shir Y. A novel behavioural model of neuropathic pain disorders produced in rats by partial sciatic nerve injury. Pain 1990; 43: 205-218; Bennet G J, Xie Y K. A peripheral mononeuropathy in rat that produces disorders of pain sensation like those seen in man. Pain 1988; 33: 87-107].\nThe pain threshold was measured with a von Frey machine, which makes it possible, by applying a gradual increase in pressure to the paw of the left hind leg of the rat, to record the nociceptive response, expressed in grams, corresponding to the moment at which the animal withdraws the leg.\nAfter-treatment measurement was made at one hour following administration. The analgesic activity is evaluated as % reversal."}, "[3]": {"tested_on": "acetic acid-induced writhing in mice", "conditions": "mouse, in vivo, po", "protocol": "as §1, §2, §3, §4, §5, §6, §7"}}, "data": [{"smiles": "NCC1(CC(=O)O)CCCCC1", "note": "[Gabapentin, gabapentin]", "values": [{"measurement": "Writhing number reduction %", "setting": "[1]; Table 2 TEST 1 (FIG. 2a), 1.5 mg/kg oral", "result": 27.1, "unit": "%"}, {"measurement": "Writhing number reduction %", "setting": "[1]; Table 2 TEST 2 (FIG. 2b), 5 mg/kg oral", "result": 38.1, "unit": "%"}, {"measurement": "Writhing number reduction %", "setting": "[1]; Table 2 TEST 3 (FIG. 2c), 15 mg/kg oral", "result": 45.9, "unit": "%"}, {"measurement": "Writhing number reduction %", "setting": "[1]; Table 3 TEST 1 RATIO 1:20, 1.5 mg/kg oral", "result": 29.2, "unit": "%"}, {"measurement": "Writhing number reduction %", "setting": "[1]; Table 3 TEST 2 RATIO 1:10, 1.5 mg/kg oral", "result": 27.1, "unit": "%"}, {"measurement": "Writhing number reduction %", "setting": "[1]; Table 3 TEST 3 RATIO 1:5, 0.75 mg/kg oral", "result": 22.4, "unit": "%"}, {"measurement": "Writhing number reduction %", "setting": "[1]; Table 3 TEST 4 RATIO 1:1, 0.15 mg/kg gabapentin oral", "result": 28.3, "unit": "%"}, {"measurement": "Writhing number reduction %", "setting": "[1]; Table 3 TEST 5 RATIO 5:1, 0.15 mg/kg oral", "result": 30.2, "unit": "%"}, {"measurement": "Writhing number reduction %", "setting": "[1]; Table 3 TEST 6 RATIO 10:1, 0.15 mg/kg oral", "result": 27.2, "unit": "%"}, {"measurement": "Reversal %", "setting": "[2]; 3.0 mg/kg", "result": 3.7, "unit": "%"}, {"measurement": "Reversal %", "setting": "[2]; 100 mg/kg (effective amount)", "result": 37.0, "unit": "%"}]}, {"smiles": "O=c1n(CCCN2CCN(c3cccc(Cl)c3)CC2)nc2ccccn12", "note": "[Trazodone, trazodone]", "values": [{"measurement": "Writhing number reduction %", "setting": "[1]; Table 2 TEST 1 (FIG. 2a), 0.15 mg/kg oral", "result": 16.0, "unit": "%"}, {"measurement": "Writhing number reduction %", "setting": "[1]; Table 2 TEST 2 (FIG. 2b), 0.5 mg/kg oral", "result": 44.4, "unit": "%"}, {"measurement": "Writhing number reduction %", "setting": "[1]; Table 2 TEST 3 (FIG. 2c), 1.5 mg/kg oral", "result": 57.1, "unit": "%"}, {"measurement": "Writhing number reduction %", "setting": "[1]; Table 3 TEST 1 RATIO 1:20, 0.075 mg/kg oral", "result": 2.1, "unit": "%"}, {"measurement": "Writhing number reduction %", "setting": "[1]; Table 3 TEST 2 RATIO 1:10, 0.15 mg/kg oral", "result": 16.0, "unit": "%"}, {"measurement": "Writhing number reduction %", "setting": "[1]; Table 3 TEST 3 RATIO 1:5, 0.15 mg/kg oral", "result": 16.3, "unit": "%"}, {"measurement": "Writhing number reduction %", "setting": "[1]; Table 3 TEST 4 RATIO 1:1, 0.15 mg/kg trazodone oral", "result": 12.2, "unit": "%"}, {"measurement": "Writhing number reduction %", "setting": "[1]; Table 3 TEST 5 RATIO 5:1, 0.75 mg/kg oral", "result": 57.4, "unit": "%"}, {"measurement": "Writhing number reduction %", "setting": "[1]; Table 3 TEST 6 RATIO 10:1, 1.5 mg/kg oral", "result": 59.7, "unit": "%"}, {"measurement": "ED50", "setting": "[3]", "result": 1.2, "unit": "mg/kg"}, {"measurement": "Reversal %", "setting": "[2]; 0.3 mg/kg", "result": 3.1, "unit": "%"}]}]}
